In brackets after ≈: the same amount, converted by molar mass. Read-outs that look alike come from different tables or passages of the source.
Key:
Assay type in all cases: cell-based
[1] = test system: Staphylococcus aureus 209P; assay: in vitro antibacterial activity (MIC); details: collection strain, read-out: MIC (minimal inhibitory concentration)
[2] = test system: Staphylococcus aureus 153; assay: in vitro antibacterial activity (MIC); details: lactamase producer, read-out: MIC (minimal inhibitory concentration)
[3] = test system: Staphylococcus aureus Smith; assay: in vitro antibacterial activity (MIC); details: collection strain, read-out: MIC (minimal inhibitory concentration)
Streptococcus pyogenes = assay: in vitro antibacterial activity (MIC); details: in vitro, read-out: MIC (minimal inhibitory concentration)
Escherichia coli B = assay: in vitro antibacterial activity (MIC); details: in vitro; Escherichia coli B; collection strain; read-out: MIC (minimal inhibitory concentration)
Pseudomonas aeruginosa = assay: in vitro antibacterial activity (MIC); details: read-out: MIC (minimal inhibitory concentration)
Salmonella typhimurium [4] = assay: in vitro antibacterial activity (MIC); details: Salmonella enterica, Salmonella typhimurium (first listing), read-out: MIC (minimal inhibitory concentration)
Escherichia coli B Cef R = assay: in vitro antibacterial activity (MIC); details: read-out: MIC (minimal inhibitory concentration)
Escherichia coli RGN 238 = assay: in vitro antibacterial activity (MIC); details: RGN238, lactamase producer, read-out: MIC (minimal inhibitory concentration)
Escherichia coli P 453 = assay: in vitro antibacterial activity (MIC); details: P453; in vitro; Escherichia coli P 453; lactamase producer; read-out: MIC (minimal inhibitory concentration)
Escherichia coli R 997 = assay: in vitro antibacterial activity (MIC); details: R997, read-out: MIC (minimal inhibitory concentration)
Escherichia coli R 57 B = assay: in vitro antibacterial activity (MIC); details: R57B; in vitro; Escherichia coli R 57 B; lactamase producer; read-out: MIC (minimal inhibitory concentration)
Escherichia coli RP 1 = assay: in vitro antibacterial activity (MIC); details: RP1, read-out: MIC (minimal inhibitory concentration)
Escherichia coli R 46 = assay: in vitro antibacterial activity (MIC); details: R46; in vitro; Escherichia coli R 46; lactamase producer; read-out: MIC (minimal inhibitory concentration)
Escherichia coli R 6 K = assay: in vitro antibacterial activity (MIC); details: R6K, read-out: MIC (minimal inhibitory concentration)
[5] = test system: Pseudomonas aeruginosa FI; assay: in vitro antibacterial activity (MIC); details: collection strain, read-out: MIC (minimal inhibitory concentration)
[6] = test system: Pseudomonas aeruginosa ATCC 2598; assay: in vitro antibacterial activity (MIC); details: ATCC2598, collection strain, read-out: MIC (minimal inhibitory concentration)
[7] = test system: Klebsiella aerogenes ATCC 1082 E; assay: in vitro antibacterial activity (MIC); details: ATCC1082; in vitro; Klebsiella aerogenes ATCC 1082 E; lactamase producer; read-out: MIC (minimal inhibitory concentration)
[8] = test system: Klebsiella pneumoniae ATCC 10031; assay: in vitro antibacterial activity (MIC), second listing of the strain; details: ATCC10031, collection strain (second listing), read-out: MIC (minimal inhibitory concentration)
[9] = test system: Enterobacter cloacae P 99; assay: in vitro antibacterial activity (MIC); details: P99, read-out: MIC (minimal inhibitory concentration)
Enterobacter cloacae 214 = assay: in vitro antibacterial activity (MIC); details: lactamase producer, read-out: MIC (minimal inhibitory concentration)
[10] = test system: Salmonella abortivoequina; assay: in vitro antibacterial activity (MIC); details: collection strain, read-out: MIC (minimal inhibitory concentration)
Salmonella typhimurium [11] = assay: in vitro antibacterial activity (MIC), collection strain; details: Salmonella enterica; in vitro; Salmonella Typhimurium; collection strain (second listing); read-out: MIC (minimal inhibitory concentration)
Proteus mirabilis = assay: as above; details: in vitro, collection strain, read-out: MIC (minimal inhibitory concentration)
[12] = test system: Staphylococcus aureus PV2; assay: in vitro antibacterial activity (MIC); details: read-out: MIC (minimal inhibitory concentration)
Escherichia coli V14 = assay: in vitro antibacterial activity (MIC); details: read-out: MIC (minimal inhibitory concentration)
Escherichia coli V23 = assay: in vitro antibacterial activity (MIC); details: read-out: MIC (minimal inhibitory concentration)
Enterobacter sp V19 = assay: in vitro antibacterial activity (MIC); details: read-out: MIC (minimal inhibitory concentration)
Klebsiella sp. R2 = assay: in vitro antibacterial activity (MIC); details: read-out: MIC (minimal inhibitory concentration)
Proteus vulgaris V15 = assay: in vitro antibacterial activity (MIC); details: read-out: MIC (minimal inhibitory concentration)
Proteus mirabilis V15 = assay: in vitro antibacterial activity (MIC); details: read-out: MIC (minimal inhibitory concentration)
Proteus mirabilis 525 = assay: in vitro antibacterial activity (MIC); details: in vitro; Proteus mirabilis 525; read-out: MIC (minimal inhibitory concentration)
Shigella flexneri = assay: in vitro antibacterial activity (MIC); details: read-out: MIC (minimal inhibitory concentration)
Protocol: A series of tests was carried out in vitro to compare the activities of (5R)-acetoxymethyl-2-acetoxymethyl-2-penum-3-carboxylate (Laboratory code FCE/20077/B40/341), (5R) acetoxymethyl-2-[(1-methyl-1H-tetrazol-5-yl)-thiomethyl]-2-penem-3-carboxylate (compound A), three reference compounds (ampicillin, cefoxitin, and thienamycin), and compound 387, which is (5R)-2-acetoxymethyl-6-(1-hydroxyethyl)-2-penem-3-carboxylic acid. The acetoxymethoxy ester of compound 387 is prepared in Example 51 and the sodium salt of the acid is prepared in Example 98 infra. Table 1 below reports the results of the above assays as MIC (minimal inhibitory concentration).

Salmonella panamae F15 = assay: in vitro antibacterial activity (MIC); details: in vitro; Salmonella panamae F15; read-out: MIC (minimal inhibitory concentration)
[13] = test system: Salmonella Saint Paul F20; assay: in vitro antibacterial activity (MIC); details: read-out: MIC (minimal inhibitory concentration)
Salmonella derby F14 = assay: in vitro antibacterial activity (MIC); details: Salmonella enterica, read-out: MIC (minimal inhibitory concentration)
[14] = test system: Salmonella montevideo F16; assay: in vitro antibacterial activity (MIC); details: Salmonella enterica, read-out: MIC (minimal inhibitory concentration)

SMILES | MIC [1] [µg/mL] | MIC [2] [µg/mL] | MIC [3] [µg/mL] | MIC (Streptococcus pyogenes) [µg/mL] | MIC (Escherichia coli B) [µg/mL] | MIC (Pseudomonas aeruginosa; in vitro) [µg/mL] | MIC (Salmonella typhimurium [4]) [µg/mL] | MIC (Escherichia coli B Cef R) [µg/mL] | MIC (Escherichia coli RGN 238) [µg/mL] | MIC (Escherichia coli P 453) [µg/mL] | MIC (Escherichia coli R 997) [µg/mL] | MIC (Escherichia coli RP 1) [µg/mL] | MIC (Escherichia coli R 6 K) [µg/mL] | MIC [5] [µg/mL] | MIC [7] [µg/mL] | MIC [8] [µg/mL] | other results
CC(=O)OCC1=C(C(=O)O)N2C(=O)C(C(C)O)[C@H]2S1 (stereo partly drawn) [Example 387, (5R)-2-acetoxymethyl-6-(1-hydroxyethyl)-2-penem-3-carboxylic acid] | 0.095 (≈ 0.331 µM) | 0.045 (≈ 0.157 µM) | 0.045 (≈ 0.157 µM) | 0.19 (≈ 0.661 µM) | 0.78 (≈ 2.71 µM) | 1.56 (≈ 5.43 µM) | 0.39 (≈ 1.36 µM) | 25 (≈ 87 µM) | 0.78 (≈ 2.71 µM) | 0.78 (≈ 2.71 µM) | 0.78 (≈ 2.71 µM) | 0.39 (≈ 1.36 µM) | 0.78 (≈ 2.71 µM) | 1.56 (≈ 5.43 µM) | 1.56 (≈ 5.43 µM) | 0.78 (≈ 2.71 µM) | MIC (Escherichia coli R 57 B): 0.78 µg/mL (≈ 2.71 µM); MIC (Escherichia coli R 46): 0.78 µg/mL (≈ 2.71 µM); MIC [6]: > 25 µg/mL; MIC [9]: 3.12 µg/mL (≈ 10.9 µM); MIC (Enterobacter cloacae 214): 12.5 µg/mL (≈ 43.5 µM); MIC [10]: 0.19 µg/mL (≈ 0.661 µM); MIC (Salmonella typhimurium [11]): 0.39 µg/mL (≈ 1.36 µM); MIC (Proteus mirabilis): 0.39 µg/mL (≈ 1.36 µM)
CC(=O)OCOC(=O)C1=C(COC(C)=O)S[C@@H]2CC(=O)N12 [FCE/20077/B40/341, (5R)-Acetoxymethyl-2-acetoxymethyl-2-penem-3-carboxylate] | 0.39 (≈ 1.24 µM) | 1.56 (≈ 4.95 µM) | ≤ 0.19 | 3.12 (≈ 9.9 µM) | 1.56 (≈ 4.95 µM) | 3.12 (≈ 9.9 µM) | 1.56 (≈ 4.95 µM) |  |  |  |  |  |  |  |  |  | MIC [12]: 0.39 µg/mL (≈ 1.24 µM); MIC (Escherichia coli V14): 1.56 µg/mL (≈ 4.95 µM); MIC (Escherichia coli V23): 3.12 µg/mL (≈ 9.9 µM); MIC (Enterobacter sp V19): 12.5 µg/mL (≈ 39.6 µM); MIC (Klebsiella sp. R2): 25 µg/mL (≈ 79.3 µM); MIC (Proteus vulgaris V15): 3.12 µg/mL (≈ 9.9 µM); MIC (Proteus mirabilis V15): 0.39 µg/mL (≈ 1.24 µM); MIC (Proteus mirabilis 525): 3.12 µg/mL (≈ 9.9 µM); MIC (Shigella flexneri): 0.39 µg/mL (≈ 1.24 µM); MIC (Salmonella panamae F15): 1.56 µg/mL (≈ 4.95 µM); MIC [13]: 1.56 µg/mL (≈ 4.95 µM); MIC (Salmonella derby F14): 3.12 µg/mL (≈ 9.9 µM); MIC [14]: 3.12 µg/mL (≈ 9.9 µM)
C[C@@H](O)[C@H]1C(=O)N2C(C(=O)O)=C(SCCN)C[C@H]12 [Thienamycin] | ≤ 0.39 |  |  |  | 0.78 (≈ 2.86 µM) |  |  | 12.5 (≈ 45.9 µM) | 0.36 (≈ 1.32 µM) | 0.78 (≈ 2.86 µM) | 0.36 (≈ 1.32 µM) | 0.36 (≈ 1.32 µM) | 0.78 (≈ 2.86 µM) | 12.5 (≈ 45.9 µM) | 1.56 (≈ 5.73 µM) | 1.56 (≈ 5.73 µM) | MIC (Pseudomonas aeruginosa): 12.5 µg/mL (≈ 45.9 µM)
